Data set [1] concerns human cell co-culture system. The experiment in a line: In vitro angiogenesis co-culture system (tubule formation, PECAM-1 staining). The data set is classed as cell-based. Particulars: 20 μM, negative control; 11 days co-culture. The procedure: Egr-1 under the control of the hCMV promoter (Houston et al, Arterioscler. Thromb. Vasc. Biol., 19; 281-289, 1999) was transfected into a human cell co-culture system designed to measure angiogenesis in vitro. The angiogenesis kit (TCS Biologicals) was used as described according to the manufacturer's instructions using VEGF protein (2 ng/ml) and suramin (20 μM) as positive and negative controls respectively for angiogenesis.
Optimisation of transfection in the co-culture system was performed using pGL3 control luciferase (Promega) with 1.0 μg and 0.5 μg CMV-β, gal as a normalising plasmid for transfection control. Two ratios of lipid: DNA (v/w) were used; 2:1 and 4:1 (FIG. 3a.). CMV Egr-1 DNA was transfected at 0.5, 1.0, 1.5 and 2.5 μg per well in triplicate in a 24 well microtitre plate using Mirus Transit reagent (Cambridge Biosciences) at a ratio of 2:1 v/w DNA. VEGF protein positive control and suramin negative control was added to triplicate wells. After 11 days co-culture angiogenesis was determined by staining of cells for the endothelial cell marker PECAM-1 and visualisation using BCIP/NBT substrate.
Representative images of tubule formation using all four doses of Egr-1 expression plasmid together with VEGF (positive control) and suramin (negative control) were captured and processed by image analysis using Quantimet 600 image analyser and associated software. […]

In a further data set the test system is rat excisional wounds. The data set is described as follows: Rat excisional wound healing model after particle mediated gene transfer. The data set is classed as in vivo, Sprague Dawley rats. On the procedure:
Eighteen male Sprague Dawley rats weighing 250g were anaesthetised under isoflorane in a 2:1 mixture of oxygen/nitrous oxide. Two sites of transfection (8 cm from the skull, 1.5 cm either side of the spine) on the rat dorsum were prepared by firstly clipping the pelt then shaving with a razor. Two transfections were carried out per wound site, 8 mm apart, by accelerating plasmid/gold complexes of either Egr-1 or β-galactosidase into the skin at 350 psi. Total amount of DNA was not less than 1.7 μg per transfection (equalling 3.4 μg per wound). […]
Wound area was determined using image analysis and the healing expressed as a increase in percent of original wound area. Statistical significances of differences between treated and control groups were evaluated using a […] Mann-Whitney test.
Each wound per time point after dissection was bisected horizontally. […] Using this histological stain, key markers of wound healing was assessed including re-epithelialisation and collagen content and comparisons made between treated and control sections.
Immunocytochemistry and image analysis was performed in order to quantify the differences seen using routine histology. […] Area and intensity of staining was measured using image analysis and plotted as a graph. Statistical significant differences between treated and control groups were evaluated using a Man-Whitney nonparametric test.

In the next data set the test system is HeLa cells. The experiment in a line: Transient transfection of reporter plasmid pSVSRE5 with pFA-MEK1 into HeLa cells. Type of data set: cell-based. Particulars: co-transfected pFA-MEK1 vs pFA-dbd. The text has this:
We have concentrated on SRE5. The novel SRE 5 with its associated Ets transcription factor binding sites was synthesised as a double stranded oligonucleotide and inserted into the Nhe I site upstream of a SV40 minimal promoter vector (pSV40). SRE5 (SEQ ID NOS:7-8) has the sequence: […]
The resulting reporter plasmid pSVSRE5 was transiently transfected into HeLa cells together with plasmids pFA-dbd (construct encoding the Gal4 DNA binding domain (dbd) ) or pFA-MEK1 (construct encoding a fusion protein of the Gal4 DNA binding domain (dbd) and the kinase domain of the MAP kinase kinase MEK1). The Gal4-MEK1 fusion protein is constitutively active and phosphorylates Elk1 and SRF, bound to SRE5.

Regarding `Cc1ccc(C(=O)Nc2ccc(S(=O)(=O)O)c3cc(S(=O)(=O)O)cc(S(=O)(=O)O)c23)cc1NC(=O)c1cccc(NC(=O)Nc2cccc(C(=O)Nc3cc(C(=O)Nc4ccc(S(=O)(=O)O)c5cc(S(=O)(=O)O)cc(S(=O)(=O)O)c45)ccc3C)c2)c1` [suramin], the tubule formation entry in data set [1] was “Decreased tubule formation”. β-galactosidase: in the data set with rat excisional wounds (2 days post wounding, β-galactosidase compared to Egr-1), the “collagen I immunostaining (image analysis)” value is listed as “significantly more collagen”. For the same molecule, the “wounds with complete re-epithelialisation” value in the data set on rat excisional wounds (6 days post wounding) was 0%.

B1: SRE5: novel SRE 5 with associated Ets sites, double stranded oligonucleotide inserted upstream of SV40 minimal promoter (reporter plasmid pSVSRE5) (nucleic acid)
chain 1: AGGCTGCGACCCGGAAATGCCATATAAGAAGCAGGAAGGATCCCCCCGCCGG
chain 2: AGCCGGCGGGGGGATCCTTCCTGCTTCTTATATGGCATTTCCGGGTCGCAGC
modifications: double-stranded insert cloned upstream of SV40 minimal promoter in reporter plasmid, further chemistry not given here
With B1, the “activation by the presence of MEK1 (reporter)” value with HeLa cells is 3 fold.
